Measured values published in ChEMBL document CHEMBL1201862, “PubChem BioAssay data set” (2004).
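Protocol summary: plate cells (96-well), add compound at 5 concentrations, incubate 48 h, interpolate endpoints linearly. GI50 is the concentration that inhibits growth by half.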 Calls of active or inactive are those of the source. Rule as the data show it: active = GI50 up to about 1.1 µM and inactive = higher.

Tests used:
Experiment in all cases: DTP human tumour cell line panel, 48 h
[1] = tested on: DLD-1
[2] = tested on: DMS-114
[3] = tested on: DMS-273
[4] = tested on: LXFL 529
[5] = tested on: M19-MEL
[6] = tested on: RXF 631
[7] = tested on: SNB-78
[8] = tested on: HOP-18
[9] = tested on: XF498

Row | SMILES | GI50 [1] | GI50 [2] | GI50 [3] | GI50 [4] | GI50 [5] | GI50 [6] | GI50 [7] | GI50 [8] | GI50 [9]
1 | COC(=O)N/N=C(\c1nc2ccc(Cl)cc2nc1O)C(O)c1ccc([N+](=O)[O-])cc1 (stereo unspecified) | > 100 µM (inactive) | > 100 µM (inactive) | > 100 µM (inactive) | > 100 µM (inactive) | > 100 µM (inactive) | > 100 µM (inactive) | > 100 µM (inactive) |  | 
2 | CC(C)(C)OC(=O)C1=C(O)C(C(=O)OC(C)(C)C)C23CCCCC12C(C(=O)OC(C)(C)C)C(O)=C3C(=O)OC(C)(C)C (stereo unspecified) | > 100 µM (inactive) | > 100 µM (inactive) | > 100 µM (inactive) | > 100 µM (inactive) | > 100 µM (inactive) |  | > 100 µM (inactive) | > 100 µM (inactive) | > 100 µM (inactive)
3 | N#CCC(=O)N/N=C(\C(=O)Nc1ccc(Cl)c(Cl)c1)C1CN(c2ccccc2)N=C1N (stereo unspecified) | > 100 µM (inactive) | > 100 µM (inactive) | > 100 µM (inactive) | > 100 µM (inactive) | > 100 µM (inactive) |  | > 100 µM (inactive) | > 100 µM (inactive) | 
4 | N#Cc1c(N)c(C(=O)O)nn(-c2cccc(C(F)(F)F)c2)c1=O | 70.3 µM (inactive) |  |  | > 100 µM (inactive) | > 100 µM (inactive) | > 100 µM (inactive) | > 100 µM (inactive) | 29.2 µM (inactive) | > 100 µM (inactive)
5 | Cc1c2c(cc3c(=O)ccn(CCN(C)C)c13)c(=O)ccn2CCN(C)C | 6.84 µM (inactive) | 16.3 µM (inactive) | 4.18 µM (inactive) | 4.46 µM (inactive) | 16.4 µM (inactive) |  | 47.1 µM (inactive) | 15.7 µM (inactive) | 10.4 µM (inactive)
6 | O=C1C2=C(c3ccccc31)C(c1ccccc1Cl)NC(S)=N2 (stereo unspecified) | 64.9 µM (inactive) |  | 68.7 µM (inactive) | 35.3 µM (inactive) | 44.2 µM (inactive) |  |  |  | 25.6 µM (inactive)
7 | O=C1c2cc([N+](=O)[O-])cc3cc([N+](=O)[O-])cc(c23)C(=O)N1CCCNCCNCCCN1C(=O)c2cc([N+](=O)[O-])cc3cc([N+](=O)[O-])cc(c23)C1=O | 0.0282 µM (active) | 0.0469 µM (active) | < 0.01 µM (active) | < 0.01 µM (active) | 0.0381 µM (active) |  | < 0.0193 µM (active) | 0.542 µM (active) | < 0.01 µM (active)
8 | C=C1C(=O)OC2/C=C(\C=O)CC/C=C(\C)C(O)C[C@@H]12 (stereo partly specified) | 2.39 µM (inactive) | 11.7 µM (inactive) | 4.36 µM (inactive) | 3.36 µM (inactive) | 5.45 µM (inactive) |  | 4.24 µM (inactive) | 16.9 µM (inactive) | 4.99 µM (inactive)
9 | Cc1ccccc1NC(=O)C(=O)C(C#N)c1ccccc1C (stereo unspecified) | > 100 µM (inactive) | > 100 µM (inactive) | > 100 µM (inactive) | > 100 µM (inactive) |  |  | > 100 µM (inactive) | > 100 µM (inactive) | 34 µM (inactive)
10 | O=S1(=O)OCCOS(=O)(=O)C1(Br)Br | > 100 µM (inactive) | > 100 µM (inactive) | > 100 µM (inactive) | > 100 µM (inactive) | > 100 µM (inactive) |  | > 100 µM (inactive) |  | 
11 | Cc1cc(=O)oc2c(C)c(OCCCOc3ccc4c(C)cc(=O)oc4c3C)ccc12 | > 100 µM (inactive) | > 100 µM (inactive) | > 100 µM (inactive) | > 100 µM (inactive) | > 100 µM (inactive) |  | > 100 µM (inactive) | > 100 µM (inactive) | > 100 µM (inactive)
12 | C=CCn1c2c(sc1=S)C(S)NC=N2 (stereo unspecified) | > 100 µM (inactive) | 43.7 µM (inactive) | > 100 µM (inactive) | > 100 µM (inactive) | > 100 µM (inactive) |  | 78.2 µM (inactive) | 18.9 µM (inactive) | > 100 µM (inactive)
13 | O=C1C2C(C(=O)N1c1ccccc1)C1c3ccccc3C2C2C(=O)N(c3ccccc3)C(=O)C21 (stereo unspecified) | 2.73 µM (inactive) | 3.08 µM (inactive) | 3.46 µM (inactive) | 38.5 µM (inactive) | 39.5 µM (inactive) |  |  | > 100 µM (inactive) | 
14 | CCCCCCCCCCCC[S+](C)C | 8.81 µM (inactive) | 2.5 µM (inactive) | 5.2 µM (inactive) |  | 1.45 µM (inactive) |  | 5.2 µM (inactive) | 4.97 µM (inactive) | 2.69 µM (inactive)
15 | O=Cc1ccc(-c2ccc(-c3ccc(C=O)s3)o2)s1 | 74.5 µM (inactive) | > 84.1 µM (inactive) | 26.2 µM (inactive) | 0.186 µM (active) | > 100 µM (inactive) | 0.541 µM (active) | > 72.8 µM (inactive) | > 100 µM (inactive) | 
16 | O=S1OC2(c3ccccc3-c3ccccc32)c2ccccc21 (stereo unspecified) | > 100 µM (inactive) | > 100 µM (inactive) |  | > 100 µM (inactive) | > 100 µM (inactive) |  |  | > 100 µM (inactive) | > 100 µM (inactive)
17 | CNc1ccc(/C=C2\C=Cc3ccccc32)cc1 | 31.3 µM (inactive) | 17 µM (inactive) | 14.2 µM (inactive) | 25.9 µM (inactive) | 43.2 µM (inactive) |  | 44.6 µM (inactive) | 16.4 µM (inactive) | 40.9 µM (inactive)
18 | COC(=O)c1oc([N+](=O)[O-])c(-c2ccccc2)c1-c1ccccc1 | 76.2 µM (inactive) | 88.3 µM (inactive) | > 100 µM (inactive) | > 100 µM (inactive) | 36.8 µM (inactive) | > 100 µM (inactive) | > 100 µM (inactive) | > 100 µM (inactive) | > 100 µM (inactive)
19 | CN1N=C(N)c2cn(C3OC(COP(=O)(O)O)C(O)C3O)c3ncnc1c23 (stereo unspecified) | 1.03 µM (active) | 1620 µM (inactive) | 18.9 µM (inactive) |  | 390 µM (inactive) |  | 79.6 µM (inactive) | 9.14 µM (inactive) | 12.4 µM (inactive)
20 | FC(F)(F)C1(Br)C(c2ccccc2)=C1c1ccccc1 | 14.7 µM (inactive) | 15.2 µM (inactive) | 17.9 µM (inactive) | 14.3 µM (inactive) | 15.6 µM (inactive) | 22.6 µM (inactive) | 25.8 µM (inactive) | 16.5 µM (inactive) | 15.2 µM (inactive)
21 | O=CC[C@H]1CCc2ccccc2C12CCC(=O)CC2 | 60.7 µM (inactive) | 33.8 µM (inactive) |  | 57.5 µM (inactive) | 57.7 µM (inactive) | > 100 µM (inactive) |  |  | 51.5 µM (inactive)
22 | NNC(=S)N/N=C(\c1nc2ccc(Cl)cc2nc1O)C(O)c1cccc([N+](=O)[O-])c1 (stereo unspecified) |  |  | > 41.1 µM (inactive) | > 74.6 µM (inactive) | > 100 µM (inactive) | 32.3 µM (inactive) | > 100 µM (inactive) | > 100 µM (inactive) | > 100 µM (inactive)
23 | CC1OC(=O)C2CC3CCCCC3C(/C=C/C3CCCC(C)N3C)C12 (stereo unspecified) | > 100 µM (inactive) | > 100 µM (inactive) | > 100 µM (inactive) | > 100 µM (inactive) | > 100 µM (inactive) |  | > 22.5 µM (inactive) | > 100 µM (inactive) | > 100 µM (inactive)
24 | Clc1ccc2cccc3c2c1C1OC3c2ccccc21 (stereo unspecified) | > 100 µM (inactive) | > 100 µM (inactive) | > 100 µM (inactive) | > 100 µM (inactive) | > 100 µM (inactive) |  | > 100 µM (inactive) | > 100 µM (inactive) | > 100 µM (inactive)
